Test results published in patent US8273372B2, “Extracellular matrix composition” (Restoration of Appearance & Function Trust, priority 2006, dated 2012).
Read-outs that look alike come from different tables or passages of the source.

How the values were obtained:
[1] = tested on: human dermal fibroblast cultures; experiment: Toxicity assay, MTS/PMS assay of cell viability; format: cell-based
Experimental: Culture medium was aspirated from confluent culture and washed with versene. […] Trypsin was neutralised with an equal volume of growth medium, the cell suspension was transferred to a universal tube. The culture flask was washed with PBS and transferred to the universal tube. Centrifugation was performed at 200×g for 7 minutes. Cells were resuspended in 1-2 ml growth medium.
Cells were seeded (10^5/well) into 24-well plates in 0.5 ml DMEM growth medium/well and incubated at 37° C. in a humidified 5% CO2 incubator, until the cells adhered and spread, typically overnight. A single well blank/plate was retained for a reagent control.
Culture medium was aspirated from cultures and replaced with: a weighed sample of scaffold (20 mg/well) in fresh serum-free DMEM; serum-free DMEM with a range of dilutions of glutaraldehyde or EDC as cross-linking agents. Cells were incubated at 37° C. in humidified 5% CO2 for 1 hr.
The medium and scaffold material was removed from cells and replaced with fresh maintenance medium (DMEM with 2% HIFBS) and returned to the incubator for 2 to 22 hours. Direct toxicity measurements were taken at 2, 14 and 20 hours. For exposure to matrices, incubation was for 20 hrs. The same medium was added to an empty control well for a reagent blank.
Aliquots of MTS & PMS stock solutions were thawed and a working MTS/PMS reagent was prepared (2 ml MTS+100 μl PMS). MTS/PMS reagent was added to all wells (50 μl/well) and returned to the incubator for 2-4 hours, until colour developed in the medium over control cultures without toxic challenge.
100 μl aliquots of medium were transferred to a 96 well ELISA plate for spectrophotometric measurement at 495 nm.
Matrices of 1% fibrin/1% alginate, foamed & lyophilised, were cross-linked with EDC or glutaraldehyde and washed 5 times in glycine or PBS before a second lyophilisation, or not, as indicated. […] pieces of matrix were incubated in wells with confluent fibroblast cultures in serum-free medium for 1 hr to detect leachable toxicity, assessed after 20 hr to check for induction of delayed cell death.

[2] = tested on: human dermal fibroblasts; experiment: MTS assay, acute cytotoxicity; format: cell-based; conditions: FIGS. 30 and 31
Experimental: (§1) The MTS assay was used as described hereinbefore with certain modifications.
(§2) Firstly, two modalities were used, (i) acute cytotoxicity and (ii) effect on proliferation over 3 days.
(§3) On day −1, human dermal fibroblasts were seeded for (i) at high density (5×10^5/well) and for (ii) at low density (2.5×10^4/well).
(§4) On day 0, cultures were washed in PBS/g and exposed to the test agent diluted into PBS/g unless otherwise stated, for a test period (1-4 hr). Then the test agent was removed and culture medium replaced. For (i), cells were returned to maintenance medium (2% FBS/DMEM) followed by MTS/PMS reagent for two hours. For (ii), cells were returned to growth medium (10% FBS/DMEC) for three days. After this period, the growth medium was aspirated and replaced with maintenance medium (2% FBS/DMEM) followed by MTS/PMS reagent for two hours.
(§5) MTS colour change at 2 hours was measured as described hereinbefore.
(§6) Test agents were GTA and soaked scaffold supernatants (a), fibrinogen and fragment E Schiff base hydrolysate (b) and (c) and alginate (d).

[3] = tested on: human dermal fibroblasts; experiment: MTS assay, effect on proliferation over 3 days; format: cell-based; conditions: FIGS. 30 and 31
Experimental: as §1, §2, §3, §4, §5, §6

[4] = tested on: neutrophil CD18; experiment: Human neutrophil activation assay (CD18, FACS); format: cell-based; conditions: 1 hour at 37° C., FIGS. 36 and 37, read-out: ED50 neutrophil CD18 activation
Experimental: Dextran 70 and ACD were warmed to 37° C. in a water bath. 2.5 ml ACD was drawn into a 20 ml syringe. 10-15 ml of blood was drawn from a volunteer into the same syringe and inverted several times to mix. The needle was changed and 6-7 ml of Dextran 70 was drawn. Some air was drawn into the top of the syringe and mixed thoroughly by inverting the syringe several times. The syringe was turned upright, taped to the inside of a 37° C. water bath and left for approximately 1.5 hours to allow for erythrocytes to sediment, leaving a leukocyte-rich plasma upper layer.
The syringe was carefully removed from the water bath keeping upright and the top of the needle was bent through about 120°. A 15 ml polypropylene tube was placed under the tip of the needle and approximately half of the plasma was slowly removed (containing the leukocytes). The remainder of the plasma was removed into a second tube leaving the red blood cells in the syringe to be discarded. Each of the 15 ml tubes was topped up with PBS/g and inverted to mix.
The tubes were centrifuged at 1000 rpm for 10 minutes. The supernatant was removed using a 1 ml plastic pipette and the pellet was loosened. If the supernatant appeared cloudy then a check was performed under the microscope for remaining cells and centrifuged again if necessary. When the supernatant was clear it was discarded. […]

[5] = tested on: HPMEC; experiment: Cell adhesion assay on cross-linked matrix protein coatings (crystal violet); format: cell-based, human; conditions: coating cross-linked with glutaraldehyde or EDC dilution range, 1 hr adhesion; FIG. 5
Experimental: HPMEC were isolated from human placentae obtained with consent and cultured according to previously published methods (Leach et al. (1994) Placenta 15(4): 355-64; Dye et al. (2001) Microvasc Res 62(2): 94-113; Dye et al. (2004) Faseb J 18(1): 125-7). Established cultures are phenotypically stable for typically up to 25 passages at a split ratio of 1:3. Cultures are maintained in standard growth medium (M199+5% PDPDS+2% HIFBS). Cultures were maintained in a humidified 5% CO2 and 37° C. atmosphere. For biocompatibility assessment of scaffolds, harvested cells were resuspended in high growth medium (M199+5% HIBFS). For cell adhesion assays harvested cells were resuspended in M199+0.5% BSA. […]
The well was washed with a sufficient number of washes to reduce residual concentration to below cytotoxic limits (5×100 μl per well) with PBS, replaced with 50 μl/well BSA/NaHCO3 (covalent reagent blocking step) and incubated for 1 hr at 37° C. Washing was performed twice with sterile PBS and the plate was stored with 100 μl/well PBS until the cells were ready.
Accutase was thawed and M199/BSA was prepared. […] The supernatant was aspirated and the cells were resuspended in 1-2 ml M199/BSA as appropriate, titurated, and cell density was counted (1:10 in 4% trypan blue/PBS), aiming for around 2×10^6/ml.
The number of cells required for the assay was calculated using 1-2×10^4 cells/well. […]

**Q.** With `CCN=C=NCCCN(C)C.Cl` [EDC, 1-(3-Dimethylamino-propyl)-3-ethyl-carbodiimide (EDC) HCl] as the molecule, how does the “LD50 for cells relative to the lowest cross-linking concentration used” value [1] read?
**A.** Its value is 5,000-10,000 times less.

**Q.** What about the “toxicity (loss of cell viability)” value ([1]; 1 hr exposure, measured at 2, 14 and 20 hours, FIGS. 6-7) of the same molecule?
**A.** Its value is “acute concentration-dependent toxicity”.

**Q.** For `O=CCCCC=O` [glutaraldehyde], which “LD50 for cells relative to the lowest cross-linking concentration used” value [1] is on record?
**A.** Its value is 5-10 times less.

**Q.** What about the “toxicity (loss of cell viability)” value [1] of the same molecule?
**A.** Its value is “acute concentration-dependent toxicity”.

**Q.** What about the “acute LD50 on HDF cytotoxicity” value [2] of the same molecule?
**A.** Its value is 50 to 150 µM.

**Q.** And the LD50 for proliferation [3]?
**A.** The LD50 for proliferation was “around 7 μM”.

**Q.** What about the EC50 [4] of the same molecule?
**A.** The EC50 was 150 to 500 µM.

**Q.** Which “effect of cross-linking on cell adhesion” value [5] does the source give for collagen here?
**A.** Its value is “biphasic effect”.

**Q.** For fibrinogen, which “effect of cross-linking on cell adhesion” value [5] is on record?
**A.** Its value is “continuously increases adhesion”.
